# Assay results reported in BindingDB's records for doi:10.7270/Q20K28JQ (Dupont Pharmaceuticals, 1996).
# Target: T1, Sterol O-acyltransferase 1 (Rattus norvegicus, UniProt O70536)
# T1 sequence (O70536 whole entry): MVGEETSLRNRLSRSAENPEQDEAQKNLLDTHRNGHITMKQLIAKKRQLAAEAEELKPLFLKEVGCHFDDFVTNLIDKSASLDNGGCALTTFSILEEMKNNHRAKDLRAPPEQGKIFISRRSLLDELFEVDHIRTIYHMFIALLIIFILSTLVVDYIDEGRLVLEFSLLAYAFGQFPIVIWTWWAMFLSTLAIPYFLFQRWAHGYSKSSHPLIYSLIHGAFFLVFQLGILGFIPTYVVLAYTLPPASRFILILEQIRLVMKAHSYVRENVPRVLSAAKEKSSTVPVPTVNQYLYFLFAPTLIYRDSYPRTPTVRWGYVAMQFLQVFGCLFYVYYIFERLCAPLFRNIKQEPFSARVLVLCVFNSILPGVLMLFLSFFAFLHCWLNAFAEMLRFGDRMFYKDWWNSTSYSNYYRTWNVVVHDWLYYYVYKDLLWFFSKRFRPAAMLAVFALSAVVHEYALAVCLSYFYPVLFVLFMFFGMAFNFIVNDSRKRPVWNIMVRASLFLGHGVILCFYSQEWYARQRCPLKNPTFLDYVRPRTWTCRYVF
# Test: ChEBML_28359
# Text: In vitro inhibition of rat liver microsomal Acyl coenzyme A:cholesterol acyltransferase
row,IC50 [nM],SMILES
1,1000,CN(C(=O)c1ccc(C#N)cc1)[C@H]1N(C)C(c2ccc(C#N)cc2)=NC1(C(F)(F)F)C(F)(F)F
2,55000,CN(C(=O)c1ccc(C#N)cc1)[C@@H]1N(C)C(c2ccc(C#N)cc2)=NC1(C(F)(F)F)C(F)(F)F
3,1900,CN(C(=O)c1ccc(C#N)cc1)C1N(C)C(c2ccc(C#N)cc2)=NC1(C(F)(F)F)C(F)(F)F (stereo not drawn)
